Assay results published in PubChem BioAssay AID743474 (The Scripps Research Institute Molecular Screening Center, 2014).
The source made the active and inactive calls. How the calls were made is not given here.

Tested on: CCHF vOTU
Test: CCHF vOTU protease inhibitors, late-stage follow-up, biochemical, fluorescence, Ub-R110 substrate (AID 743474)
Conditions: Recombinant CCHF vOTU, Ub-R110 fluorescence cleavage, hits give high values

For `O=C(COC(=O)c1ccc([N+](=O)[O-])s1)Nc1ccc(F)cc1`, the inhibition (Assay 1, Ub-R110 substrate, at 26.34 µM) was 21.3%.

With `CN(C1=C(NC(=O)c2ccccc2)C(=O)c2ccccc2C1=O)C1CCS(=O)(=O)C1` (stereo not drawn) the inhibition (Assay 1, Ub-R110 substrate, at 9.59 µM) was 4.36% (inactive) and the inhibition (Assay 2, Ub-R110 substrate, at 19.18 µM) was 55.5%.

`NS(=O)(=O)c1ccc(NC2=CC(=O)C(=O)c3ccccc32)cc1` gave an inhibition (Assay 1, Ub-R110 substrate, at 11.51 µM) of 21.1%.

`COc1cc(NC(=O)COC(=O)c2ccc([N+](=O)[O-])s2)cc(OC)c1OC` was tested, and the inhibition (Assay 1, Ub-R110 substrate, at 21.72 µM) was 15.2% (inactive).

`O=C1Cc2ccccc2C(=O)N1` was tested, and the inhibition (Assay 1, Ub-R110 substrate, at 0.6 µM) was 57.9%.

`O=C(COC(=O)c1ccc([N+](=O)[O-])s1)NCc1ccc(F)cc1` gave an inhibition (Assay 1, Ub-R110 substrate, at 40.58 µM) of 30.5%.

`O=C(NC1=C(NC2CCS(=O)(=O)C2)C(=O)c2ccccc2C1=O)c1ccccc1` (stereo not drawn) gave an inhibition (Assay 1, Ub-R110 substrate, at 14.2 µM) of 49.8%.

In the case of `COc1cc(Br)c(C(=O)c2nccc3cc(OC)c(OC)cc23)cc1OC`, the inhibition (Assay 1, Ub-R110 substrate, at 1.13 µM) is reported as 14.4% (inactive).

For `Cn1nc(-c2ccccn2)nc2c(=O)n(C)c(=O)nc1-2`, the inhibition (Assay 1, Ub-R110 substrate, at 1.16 µM) was 97.3%.

`O=S(=O)(Nc1cc2nc3ccccc3nc2n1Cc1ccccc1)c1ccc(Cl)cc1` was tested, and the inhibition (Assay 1, Ub-R110 substrate, at 7.6 µM) was 5% (inactive).

In the case of `O=C1C=C(Nc2ccccc2)c2ccccc2C1=O`, the inhibition (Assay 1, Ub-R110 substrate, at 15.55 µM) is reported as 21.8%.

In the case of `CCc1cc[n+](C2=C(NS(=O)(=O)c3cccs3)C(=O)c3ccccc3C2=O)cc1`, the inhibition (Assay 1, Ub-R110 substrate, at 14.16 µM) is reported as 64.3%.

For `O=C1Cc2ccccc2C(=O)N1CCc1ccccc1`, the inhibition (Assay 1, Ub-R110 substrate, at 1.51 µM) was 3.44% (inactive) and the inhibition (Assay 2, Ub-R110 substrate, at 3.02 µM) was 10.7% (inactive).

For `O=C(OCc1nnc(-c2ccccc2)o1)c1ccc([N+](=O)[O-])s1`, the inhibition (Assay 1, Ub-R110 substrate, at 26.04 µM) was 20.8%.

`Cc1ccc2c(c1C)-c1c(ccc(C)c1C)C(=O)C2=O` gave an inhibition (Assay 1, Ub-R110 substrate, at 18.9 µM) of 62.5%.

Work on `CC1COCC(C)N1C1=C(Cl)C(=O)c2ccccc2C1=O` (stereo not drawn) yielded an inhibition (Assay 1, Ub-R110 substrate, at 14.67 µM) of 31.2%.

In the case of `O=C(c1ccco1)[C@@H]1[C@@H]2C(=O)N(c3ccc(Br)cc3)C(=O)[C@@H]2C2c3ccccc3C=CN21` (stereo partly drawn), the inhibition (Assay 1, Ub-R110 substrate, at 11.01 µM) is reported as 16.9% (inactive).

With `O=C1OC(Nc2cc(Br)cc3cccnc23)c2ccccc21` (stereo not drawn) the inhibition (Assay 1, Ub-R110 substrate, at 5.44 µM) was 6% (inactive).

In the case of `COC1=C(N)C(=O)c2nc(C)ccc2C1=O`, the inhibition (Assay 1, Ub-R110 substrate, at 4.98 µM) is reported as 16.6% (inactive).

`COc1ccc2noc3c2c1C(=O)c1ccccc1-3` showed an inhibition (Assay 1, Ub-R110 substrate, at 6.28 µM) of 22.7%.

Molecule `Cc1ccc(NC2=CC(=O)C(=O)c3ccccc32)cc1` has an inhibition (Assay 1, Ub-R110 substrate, at 12.24 µM) of 22.1%.

With `O=C(NC1=CC(=O)c2ccccc2C1=O)c1ccccc1` the inhibition (Assay 1, Ub-R110 substrate, at 12.37 µM) was 55.6%.

`COC(CNC(=O)c1ccc2c3c(onc13)-c1ccccc1C2=O)OC` showed an inhibition (Assay 1, Ub-R110 substrate, at 24.19 µM) of 52.5%.

With `O=C(O)CSc1cc(NS(=O)(=O)c2cccc([N+](=O)[O-])c2)c2ccccc2c1O` the inhibition (Assay 1, Ub-R110 substrate, at 7.61 µM) was 0.5% (inactive).

For `Cc1ccccc1-c1cc2c(nn1)-c1ccccc1C2=O`, the inhibition (Assay 1, Ub-R110 substrate, at 2.23 µM) was 3.27% (inactive) and the inhibition (Assay 2, Ub-R110 substrate, at 4.46 µM) was 15.3% (inactive).

With `O=c1[nH]c(Nc2ccccc2)cc2cc(Br)ccc12` the inhibition (Assay 1, Ub-R110 substrate, at 1.45 µM) was 19.9% (inactive).

For `CC(=O)c1ccc(NC(=S)Nc2cccc3cnccc23)cc1`, the inhibition (Assay 1, Ub-R110 substrate, at 7.69 µM) was 4.4% (inactive).

Molecule `O=C1Cc2ccccc2C(=O)N1Cc1ccccc1` has an inhibition (Assay 1, Ub-R110 substrate, at 1.31 µM) of 49.5%.

`CC1CCCC(NC(=O)COC(=O)c2ccc([N+](=O)[O-])s2)C1C` (stereo not drawn) was tested, and the inhibition (Assay 1, Ub-R110 substrate, at 31.32 µM) was 14.7% (inactive).

`CCn1nc(/C=C/c2ccccc2)nc2c(=O)n(C)c(=O)nc1-2` showed an inhibition (Assay 1, Ub-R110 substrate, at 0.49 µM) of 98%.

For `COc1cc(C(=O)c2nccc3cc(OC)c(OC)cc23)c([N+](=O)[O-])cc1OC`, the inhibition (Assay 1, Ub-R110 substrate, at 4.04 µM) was 0.3% (inactive).

In the case of `CCOC(=O)N=Nc1c2ccccc2c2nc3no[nH]c3nc12`, the inhibition (Assay 1, Ub-R110 substrate, at 7.75 µM) is reported as 33.2%.

In the case of `Cc1c(Cl)cnc(NC(=O)COC(=O)c2ccc([N+](=O)[O-])s2)c1Cl`, the inhibition (Assay 1, Ub-R110 substrate, at 20.44 µM) is reported as 40.7%.

`Cc1ccc(N2C(=O)[C@@H]3[C@H](C2=O)C2c4ccccc4C=CN2[C@@H]3C(=O)c2ccco2)cc1` (stereo partly drawn) showed an inhibition (Assay 1, Ub-R110 substrate, at 5.2 µM) of 33.9%.

For `O=C(/C=C/c1ccc(O)cc1)c1ccc(NC2=C(N3CCCCC3)C(=O)c3ccccc3C2=O)cc1`, the inhibition (Assay 1, Ub-R110 substrate, at 10.17 µM) was 23.2%.

In the case of `CC1(C)C=C2C(=NN(c3ccccc3)C(N)=C2C#N)CO1`, the inhibition (Assay 1, Ub-R110 substrate, at 23.49 µM) is reported as 22.2%.

In the case of `NS(=O)(=O)c1ccc(NC(=O)COC(=O)c2ccc([N+](=O)[O-])s2)cc1`, the inhibition (Assay 1, Ub-R110 substrate, at 29.01 µM) is reported as 13.3% (inactive).

Work on `O=C(COC(=O)c1ccc([N+](=O)[O-])s1)Nc1ncc(C(F)(F)F)cc1Cl` yielded an inhibition (Assay 1, Ub-R110 substrate, concentration not given here) of 41.1%.

In the case of `COc1ccccc1NC(=O)COC(=O)c1ccc([N+](=O)[O-])s1`, the inhibition (Assay 1, Ub-R110 substrate, at 35.07 µM) is reported as 26.7%.

`CCC(CNc1cc(OC)cc2cccnc12)NC1CCCCC1` (stereo not drawn) was tested, and the inhibition (Assay 1, Ub-R110 substrate, at 6.96 µM) was 3.8% (inactive).
